Test results published in patent publication US20090162280A1, “DETECTING SOLUBLE A-BETA” (GENERAL ELECTRIC COMPANY, priority 2007, published 2009).

What was measured:
[1] = target: T1, soluble A-beta oligomers (beta-amyloid 1-42 oligomer, 20% biotin) (Homo sapiens, UniProt P05067); experiment: SPA competition binding against tritium labeled 49b on soluble A-beta oligomers; details: for IC50: 130 nM 3H-49b, unlabeled competitor; for % inhibition: 50 uM unlabeled competitor, 130 nM tritium labeled-49b
T1 construct: 1 mg of human beta-amyloid 1-42 (H-1368, Bachem); purchased Bachem H-1368 (unlabelled), H-5642 (biotinylated)
T1 sequence (P05067 672-713): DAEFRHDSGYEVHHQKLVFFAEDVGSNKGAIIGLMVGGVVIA
Description: A. Soluble A-beta. 1 mg of human beta-amyloid 1-42 (H-1368, Bachem) and 500 uL of 1,1,1,3,3,3 hexafluoro-2-propanol (HFIP) (Aldrich) were chilled in separate bottles on ice for 30 minutes. Cold beta-amyloid 1-42 was solubilized with cold HFIP. The mixture was incubated for 1 hr at room temperature until it turned clear. The resulting solution was then dried to a film under vacuum. The film was dissolved again in cold HFIP and incubated another 1 hr at room temperature. The resulting solution was separated into aliquots in several microcentrifuge tubes. HFIP was removed under vacuum, and the films were stored at −20° C. until use. To prepare soluble oligomer, the film was dissolved in appropriate amount of dry DMSO (Sigma), and Ham's F12 media (Biosource) or PBS (Sigma, D8537) was added and incubated at 4° C. for 24 hours (final concentration of 200 uM or 0.9 mg/mL beta-amyloid in 2% DMSO). The tube containing the soluble oligomers was centrifuged at 13,000 rpm for 5 minutes, and its supernatant was transferred to a clean tube.
The three compounds shown in Table 1 were synthesized and evaluated for their ability to bind to soluble A-beta using the scintillation proximity assays (SPA) and/or AFM as described below. The percent inhibition reported was for 50 uM of the indicated unlabeled competitor and 130 nM of tritium labeled-49b.
(§1) For SPA and atomic force microscopy experiments, preparations of soluble oligomers and fibrils contained 20% biotinylated beta-amyloid 1-42 and 1-40, respectively (H-5642, H-5914, Bachem).
Lyophilized Streptavidin-Ysi beads (GE Healthcare) were reconstituted to 100 mg/mL in deionized water, and then further diluted in deionized water to give a suspension containing 0.25 mg/10 μL water. Unlabeled 49b, PIB and compound of formula III (353207) were dissolved in DMSO to give a final stock concentration of 15 mM.
For the saturation-binding assay, isotopic dilution of radiolabeled 49b with unlabeled 49b was performed. ^3H-49b was added to 500 uM of unlabeled 49b to a final concentration of 50 μCi/mL ^3H-49b. The probe solution was then serially diluted in PBS to give six solutions giving 6.6, 13.1, 26.3, 52.5, 105, or 210 uM in the final assay well. Each concentration of the probe solution was incubated with 12 μg beta-amyloid 1-42 oligomer (20% biotin) or 1-40 (20% biotin) fibrils in a total volume of 90 μL. Assays were incubated at room temp for 2 hrs before addition of 10 μL YSi-streptavidin (0.25 mg) SPA bead. Assays were set-up in triplicate in 96-well NBS plates (Costar). Assays were incubated overnight and counted the following morning. […] The specific activities of four probes were different, however the level of activity was the same at the concentrations where the probes were tested. […]

[2] = target: T1, soluble A-beta oligomers (beta-amyloid 1-42 oligomer, 20% biotin); experiment: SPA saturation / direct binding of tritium labeled probes to soluble A-beta oligomers
Description: For the saturation-binding assay, isotopic dilution of radiolabeled 49b with unlabeled 49b was performed. ^3H-49b was added to 500 uM of unlabeled 49b to a final concentration of 50 μCi/mL ^3H-49b. The probe solution was then serially diluted in PBS to give six solutions giving 6.6, 13.1, 26.3, 52.5, 105, or 210 uM in the final assay well. Each concentration of the probe solution was incubated with 12 μg beta-amyloid 1-42 oligomer (20% biotin) or 1-40 (20% biotin) fibrils in a total volume of 90 μL. Assays were incubated at room temp for 2 hrs before addition of 10 μL YSi-streptavidin (0.25 mg) SPA bead. Assays were set-up in triplicate in 96-well NBS plates (Costar). Assays were incubated overnight and counted the following morning. […] Assay conditions were the same as described in saturation binding assay.
(§2) Data analyses were performed using Sigma Plot or GraphPad Prism® version 4. Curves were fitted using non-linear regression. KD values and IC50 values were estimated from the binding curves.
A direct binding assay using tritium labeled 49b was performed against oligomers or fibrils by scintillation proximity assay (SPA). Beta-amyloid containing 20% biotin and tritiated 49b were incubated in solution for two hours prior to addition of the Ysi-Streptavidin beads.

[3] = target: T2, beta-amyloid 1-40 fibrils (20% biotin) (Homo sapiens, UniProt P05067); experiment: SPA saturation binding of 3H-49b to 1-40 fibrils; details: same conditions as for soluble oligomers; compared with oligomers
T2 construct: Lyophilized human beta-amyloid 1-40 peptide (Catalog number H-1194, Bachem); purchased Bachem H-1194 (unlabelled), H-5914 (biotinylated)
T2 sequence (P05067 672-711): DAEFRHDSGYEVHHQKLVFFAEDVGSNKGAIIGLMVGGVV
Description: B. Insoluble A-beta (1-40) fibril formation: Lyophilized human beta-amyloid 1-40 peptide (Catalog number H-1194, Bachem) was solubilized with HFIP to produce a dry clear film following the process described above for beta-amyloid 1-42. The clear film of beta-amyloid 1-40 was diluted with 10 mM phosphate buffer, pH 7.4, containing 1 mM EDTA, such that final Aβ concentration was 0.5 mg/ml, then mixed briefly. The solution was incubated at 37° C. on an orbital shaker set at 200 rpm for 48 h. A cloudy solution was produced, and the fibril production was confirmed by measuring changes in fluorescence of Thioflavin T, as well as by atomic force microscopy and transmission electron microscopy. Fibrils were used immediately after their production was confirmed.
as §1
For the saturation-binding assay, isotopic dilution of radiolabeled 49b with unlabeled 49b was performed. ^3H-49b was added to 500 uM of unlabeled 49b to a final concentration of 50 μCi/mL ^3H-49b. The probe solution was then serially diluted in PBS to give six solutions giving 6.6, 13.1, 26.3, 52.5, 105, or 210 uM in the final assay well. […] Assays were incubated overnight and counted the following morning. […]

1-42 fibrils = 1-42 fibrils (Homo sapiens, UniProt P05067); experiment: SPA binding of 3H-49b to 1-42 fibrils; details: same conditions used to measure binding to soluble oligomers
Sequence of 1-42 fibrils (P05067 672-713): as the sequence (P05067 672-713) above

Aβ 1-40 fibrils = target: T3, Aβ 1-40 fibrils (Homo sapiens, UniProt P05067); experiment: SPA competition binding against 3H-PIB on A-beta fibrils; details: ~30 nM [3H]PIB, 10 μg Aβ 1-40 fibrils, unlabeled competitor
T3 construct: Lyophilized human beta-amyloid 1-40 peptide (Catalog number H-1194, Bachem); purchased Bachem H-1194 (unlabelled), H-5914 (biotinylated)
T3 sequence (P05067 672-711): as the sequence (P05067 672-711) above
Description: For the ^3H-PIB binding reaction, 10 μg Aβ 1-40 fibrils were incubated with ˜30 nM [^3H]PIB in the presence of the unlabeled competitors in a total volume of 90 μl PBS. […] Non-specific binding wells contained PBS instead of fibril/oligomer. Assays were incubated at room temperature for 2 hr before addition of 10 μl YSi-streptavidin bead (0.13 mg). Assays were shaken for 1 min and then incubated overnight before counting the following morning using Microbeta.
as §2

[4] = saturation binding with oligomers

IC50 [1] | Kd ([2]; 3H-49b isotopically diluted with unlabeled 49b, incubated with oligomers, read-out: binding constant (saturation binding)) | Bmax [2, 4] | molar ratio probe:beta-amyloid at Bmax [2, 4] | binding to 1-40 fibrils [3] | competition of tritium labeled PIB binding to fibrils (in words) (Aβ 1-40 fibrils) | SMILES | specificity, oligomers over fibrils ([2]; direct binding of 3H-49b, oligomers versus fibrils) | affinity for 1-42 fibrils (1-42 fibrils) | % inhibition [1]
60 µM | 50 µM | 60-80 nmol/mg beta-amyloid | 1 probe:3-4 beta-amyloid | Much less binding was observed | not competed | O=Cc1ccc(-c2oc3ccccc3c2CO)o1 [Formula II, 2-(2-formyl-5-furanyl)-3-hydroxymethyl benzofuran] | showed specificity to oligomers over fibrils | no measurable affinity could be determined | –
1 to 7 µM | – | – | – | – | did not compete | O=C(Nc1ccc(O)c(C(=O)O)c1)c1ccc(-c2ccc(C(=O)Nc3ccc(O)c(C(=O)O)c3)cc2)cc1 [Formula III] | – | – | 82%
– | – | – | – | – | – | CNc1ccc(-c2nc3ccc(O)cc3s2)cc1 [Formula I, 2-(4-methylamino)phenylbenzothiazol-6-ol, reference compound] | – | – | 3%
